Read-outs that look alike come from different tables or passages of the source.
How the values were obtained:
[1] = tested on: A549; test: MTT cytotoxicity assay, monolayer culture; type: cell-based, human; conditions: exposure time 96 h, means ± SDs
[2] = tested on: CH1/PA‐1; test: MTT cytotoxicity assay, monolayer culture; type: cell-based, human; conditions: CH1/PA‐1, MTT assay, exposure time 96 h, means ± SDs
[3] = tested on: SW480; test: MTT cytotoxicity assay, monolayer culture; type: cell-based, human
[4] = pH 7.2
Method: Stock solutions containing the desired complex in DMSO (5 mM) were diluted with phosphate buffer (pH 7.2) to a final concentration of […] compound in 1 % DMSO/20 mM buffer and directly analyzed by four different isocratic UHPLC runs (Δ=5 %). The lipophilicity parameters logkw and lipophilicity indices φ0 were calculated according to literature.7, 37

[5] = tested on: A549; conditions: A549 multicellular spheroids, 96 h drug exposure
Method: (§1) A549, CH1/PA‐1 and SW480 cells were grown in MEM supplemented with 10 % fetal calf serum (FCS; from Biowest), 1 mM sodium pyruvate, 4 mM L‐glutamine and 1 % v/v nonessential amino acids (from 100×solution) and L‐glutamine. HCT‐116 cells were maintained in McCoy's 5a medium supplemented with 10 % FCS and L‐glutamine. Adherent monolayer cultures were grown in 75 cm^2 flasks. For spheroid culture, A549, CH1/PA‐1 and HCT‐116 cells were harvested from culture flasks by trypsinization, resuspended in their respective supplemented medium and seeded in ultra‐low attachment round‐bottom 96‐well plates (Corning Costar) at a density of 500 viable cells per well. Plates were incubated for 96 h to allow spheroid formation prior to use for the tests. All cultures were incubated in a humidified incubator at 37 °C with 5 % CO2.
(§2) Cytotoxicity in multicellular spheroids was determined by the fluorimetric resazurin assay. […] After incubation for 96 h, 20 μL of a 440 μM resazurin sodium salt solution in PBS were added to each well, and the plates were incubated for further 16 h. Fluorescence was measured with a Synergy HT reader (BioTek) with an excitation wavelength of 530 nm and emission wavelength of 590 nm. For both assays, at least three independent experiments (or two in case of poor activity) were performed, each with triplicates per concentration level, and the 50 % inhibitory concentrations (IC50) relative to untreated controls were interpolated from concentration‐effect curves.

[6] = tested on: CH1/PA‐1; conditions: CH1/PA‐1 multicellular spheroids, 96 h drug exposure
Method: as §1, §2

[7] = tested on: HCT‐116; conditions: HCT‐116 multicellular spheroids, 96 h drug exposure
Method: as §1, §2

[8] = tested on: CH1/PA‐1; test: Cell cycle distribution, flow cytometry with propidium iodide; type: cell-based, human; conditions: for Cell cycle distribution G1, % / Cell cycle distribution G2/M, % / Cell cycle distribution S, %: 24 h, mean ± SD; for Relative change in cell cycle distribution G1, % / Relative change in cell cycle distribution G2/M, % / Relative change in cell cycle distribution S, %: difference to untreated control
Summary of the method: (§3)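 CH1/PA-1 and SW480 cells were allowed to attach for 24 h, then exposed continuously to compounds for 24 h at 37 °C. Nuclei were stained overnight at 4 °C with propidium iodide (50 μg mL^−1) in Triton/citrate buffer. 5×10^3 cells were analysed by flow cytometry, with G1/S/G2/M fractions fitted by the Watson Pragmatic model.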

[9] = tested on: SW480; test: as above; type: cell-based, human; conditions: for Cell cycle distribution G1, % / Cell cycle distribution G2/M, % / Cell cycle distribution S, %: 24 h, mean ± SD; for Relative change in cell cycle distribution G1, % / Relative change in cell cycle distribution G2/M, % / Relative change in cell cycle distribution S, %: difference to untreated control
Summary of the method: as §3

[10] = tested on: SW480 cells; conditions: for Cellular accumulation: ICP‐MS, 2 h exposure
[11] = tested on: human cancer cell lines CH1/PA‐1, SW480, A549; conditions: tested cancer cell lines
Method: Cytotoxicity of the compounds in monolayer cultures was determined by the colorimetric MTT assay (MTT=3‐(4,5‐dimethyl‐2‐thiazolyl)‐2,5‐diphenyl‐2H‐tetrazolium bromide). 1×10^3 CH1/PA‐1, 2×10^3 SW480 and 3×10^3 A549 cells were seeded in 100 μL supplemented MEM per well into 96‐well flat‐bottom microculture plates. […] After 96 h, the drug‐containing medium was replaced with 100 μL of RPMI 1640/MTT mixture [6 parts of RPMI 1640 medium (supplemented with 10 % heat‐inactivated fetal bovine serum and 4 mM L‐glutamine), 1 part of MTT solution in phosphate‐buffered saline (5 mg mL^−1)]. After incubation for 4 h, the mixture was replaced with 150 μL DMSO per well to dissolve the formazan product formed by viable cells. Optical densities at 550 nm (and at a reference wavelength of 690 nm) were measured with a microplate reader (ELx808, Bio‐Tek).

[12] = SW480, MTT assay, exposure time 96 h, means ± SDs

CC1=C2[O][Ir+]([Cl])[S]=C2C=CN1C.Cc1c(C)c(C)[c-](C)c1C [Compound 6 a, Chlorido[1,2‐dimethyl‐3‐oxo‐κO‐pyridine‐4(1H)‐thionato‐κS](η^5‐1,2,3,4,5‐pentamethylcyclopentadienyl)iridium(III)]
IC50 [1]: 63 ± 6 µM | IC50 [2]: 7 ± 1.6 µM | IC50 [3, 12]: 4.2 ± 0.2 µM | IC50 ([3]; SW480, as listed in Table 3): 4.18 ± 0.19 µM | φ0 (chromatographic lipophilicity index) [4]: 5.75 | IC50 [5]: 270 ± 17 µM | IC50 [6]: 131 ± 14 µM | IC50 [7]: 138 ± 6 µM | Cell cycle distribution G1, % ([8]; CH1/PA-1, 10 µM): 29 ± 3% | Cell cycle distribution G2/M, % ([8]; CH1/PA-1, 10 µM): 26 ± 4% | Cell cycle distribution S, % ([8]; CH1/PA-1, 10 µM): 45 ± 8% | Relative change in cell cycle distribution G1, % ([8]; CH1/PA-1, 10 µM): -11% | Relative change in cell cycle distribution G2/M, % ([8]; CH1/PA-1, 10 µM): 2% | Relative change in cell cycle distribution S, % ([8]; CH1/PA-1, 10 µM): 9% | Cell cycle distribution G1, % ([8]; CH1/PA-1, 20 µM): 33 ± 4% | Cell cycle distribution G2/M, % ([8]; CH1/PA-1, 20 µM): 26 ± 9% | Cell cycle distribution S, % ([8]; CH1/PA-1, 20 µM): 41 ± 10% | Relative change in cell cycle distribution G1, % ([8]; CH1/PA-1, 20 µM): -7% | Relative change in cell cycle distribution G2/M, % ([8]; CH1/PA-1, 20 µM): 2% | Relative change in cell cycle distribution S, % ([8]; CH1/PA-1, 20 µM): 5% | Cell cycle distribution G1, % ([8]; CH1/PA-1, 40 µM): 28 ± 6% | Cell cycle distribution G2/M, % ([8]; CH1/PA-1, 40 µM): 26 ± 4% | Cell cycle distribution S, % ([8]; CH1/PA-1, 40 µM): 45 ± 5% | Relative change in cell cycle distribution G1, % ([8]; CH1/PA-1, 40 µM): -12% | Relative change in cell cycle distribution G2/M, % ([8]; CH1/PA-1, 40 µM): 2% | Relative change in cell cycle distribution S, % ([8]; CH1/PA-1, 40 µM): 9% | Cell cycle distribution G1, % ([9]; SW480, 2.5 µM): 48 ± 2% | Cell cycle distribution G2/M, % ([9]; SW480, 2.5 µM): 19 ± 3% | Cell cycle distribution S, % ([9]; SW480, 2.5 µM): 32 ± 1% | Relative change in cell cycle distribution G1, % ([9]; SW480, 2.5 µM): 0% | Relative change in cell cycle distribution G2/M, % ([9]; SW480, 2.5 µM): 0% | Relative change in cell cycle distribution S, % ([9]; SW480, 2.5 µM): -1% | Cell cycle distribution G1, % ([9]; SW480, 5 µM): 41 ± 4% | Cell cycle distribution G2/M, % ([9]; SW480, 5 µM): 26 ± 5% | Cell cycle distribution S, % ([9]; SW480, 5 µM): 33 ± 9% | Relative change in cell cycle distribution G1, % ([9]; SW480, 5 µM): -7% | Relative change in cell cycle distribution G2/M, % ([9]; SW480, 5 µM): 7% | Relative change in cell cycle distribution S, % ([9]; SW480, 5 µM): 0% | Cell cycle distribution G1, % ([9]; SW480, 10 µM): 42 ± 4% | Cell cycle distribution G2/M, % ([9]; SW480, 10 µM): 17 ± 3% | Cell cycle distribution S, % ([9]; SW480, 10 µM): 42 ± 3% | Relative change in cell cycle distribution G1, % ([9]; SW480, 10 µM): -6% | Relative change in cell cycle distribution G2/M, % ([9]; SW480, 10 µM): -2% | Relative change in cell cycle distribution S, % ([9]; SW480, 10 µM): 9% | cellular concentration relative to 3 a [10]: about 47 times | Cellular accumulation ([10]; 50 μM): 986±152 fg/cell

Chlorido[1‐benzyl‐2‐methyl‐3‐oxo‐κO‐pyridine‐4(1H)‐thionato‐κS](η^5‐1,2,3,4,5‐pentamethylcyclopentadienyl)rhodium(III) [Compound 5 c]
IC50 [1]: 0.72 ± 0.11 µM | IC50 [2]: 0.37 ± 0.04 µM | IC50 [3, 12]: 0.28 ± 0.02 µM | IC50 ([3]; SW480, as listed in Table 3): 0.28 ± 0.02 µM | IC50 [5]: 79 ± 5 µM | IC50 [6]: 59 ± 10 µM | IC50 [7]: 62 ± 1 µM | Cell cycle distribution G1, % ([8]; CH1/PA-1, 1.25 µM): 40 ± 14% | Cell cycle distribution G2/M, % ([8]; CH1/PA-1, 1.25 µM): 22 ± 7% | Cell cycle distribution S, % ([8]; CH1/PA-1, 1.25 µM): 38 ± 7% | Relative change in cell cycle distribution G1, % ([8]; CH1/PA-1, 1.25 µM): 0% | Relative change in cell cycle distribution G2/M, % ([8]; CH1/PA-1, 1.25 µM): -2% | Relative change in cell cycle distribution S, % ([8]; CH1/PA-1, 1.25 µM): 2% | Cell cycle distribution G1, % ([8]; CH1/PA-1, 2.5 µM): 34 ± 5% | Cell cycle distribution G2/M, % ([8]; CH1/PA-1, 2.5 µM): 24 ± 4% | Cell cycle distribution S, % ([8]; CH1/PA-1, 2.5 µM): 42 ± 3% | Relative change in cell cycle distribution G1, % ([8]; CH1/PA-1, 2.5 µM): -6% | Relative change in cell cycle distribution G2/M, % ([8]; CH1/PA-1, 2.5 µM): 0% | Relative change in cell cycle distribution S, % ([8]; CH1/PA-1, 2.5 µM): 6% | Cell cycle distribution G1, % ([8]; CH1/PA-1, 5 µM): 30 ± 10% | Cell cycle distribution S, % ([8]; CH1/PA-1, 5 µM): 42 ± 6% | Relative change in cell cycle distribution G1, % ([8]; CH1/PA-1, 5 µM): -10% | Relative change in cell cycle distribution G2/M, % ([8]; CH1/PA-1, 5 µM): 4% | Relative change in cell cycle distribution S, % ([8]; CH1/PA-1, 5 µM): 6% | decrease in G1 phase ([8]; CH1/PA‐1 cells, 2.5 μM): 6% | Cell cycle distribution G1, % ([9]; SW480, 2.5 µM): 44 ± 10% | Cell cycle distribution G2/M, % ([9]; SW480, 2.5 µM): 20 ± 6% | Cell cycle distribution S, % ([9]; SW480, 2.5 µM): 36 ± 1% | Relative change in cell cycle distribution G1, % ([9]; SW480, 2.5 µM): -4% | Relative change in cell cycle distribution G2/M, % ([9]; SW480, 2.5 µM): 1% | Relative change in cell cycle distribution S, % ([9]; SW480, 2.5 µM): 3% | Cell cycle distribution G1, % ([9]; SW480, 5 µM): 44 ± 5% | Cell cycle distribution G2/M, % ([9]; SW480, 5 µM): 17 ± 4% | Cell cycle distribution S, % ([9]; SW480, 5 µM): 39 ± 1% | Relative change in cell cycle distribution G1, % ([9]; SW480, 5 µM): -4% | Relative change in cell cycle distribution G2/M, % ([9]; SW480, 5 µM): -2% | Relative change in cell cycle distribution S, % ([9]; SW480, 5 µM): 6% | Cell cycle distribution G1, % ([9]; SW480, 10 µM): 50 ± 2% | Cell cycle distribution G2/M, % ([9]; SW480, 10 µM): 16 ± 5% | Cell cycle distribution S, % ([9]; SW480, 10 µM): 34 ± 5% | Relative change in cell cycle distribution G1, % ([9]; SW480, 10 µM): 2% | Relative change in cell cycle distribution G2/M, % ([9]; SW480, 10 µM): -3% | Relative change in cell cycle distribution S, % ([9]; SW480, 10 µM): 1% | decrease in G1 phase ([9]; SW480 cells, at applicable concentrations): < 9% | Cellular accumulation ([10]; 20 μM): 855±66 fg/cell | IC50 values, in words [11]: high nanomolar range

Source: article PMC7217150, “Synthesis, Modification, and Biological Evaluation of a Library of Novel Water‐Soluble Thiopyridone‐Based Organometallic Complexes and Their Unexpected (Biological) Behavior” (Chemistry (Weinheim an Der Bergstrasse, Germany), 2020)
